Here are results for four molecules from patent publication US20090247492A1, “MANGANESE BASED ORGANOMETALLIC COMPLEXES, PHARMACEUTICAL COMPOSITIONS AND DIETETIC PRODUCTS” (MEDESIS PHARMA S.A.,, priority 2003, published 2009).

Series [1] concerns edema produced by injection of adriamycin under the arch of the hind paw of the rat. Kind of series: adriamycin test: paw edema in the Wistar rat (anti-free radical activity). In kind it is in vivo. The arrangement: Paw volume, group mean: unit not given beside the values. To be noted: for Paw volume, individual animals / Paw volume, group mean / Percentage paw edema, individual animals / Percentage paw edema, group mean: 100 mg/kg IP daily; for Paw volume, group mean / Percentage paw edema, group mean: 10 rats; for Percentage of edema inhibition (protection): vs olive oil control, Diosmine 100 mg/kg IP, Example 4 1 ml/kg IP. The protocol: The adriamycin test is a specific test used to show evidence of the anti-free radical activity of a test substance. This test is described in G. Jadot, Cedema from adriamycin in the Wistar rat. SuperOxide Dismutases, p 73-77, Masson Ed., Paris, 1988.
One hour following injection of Adriamycin, a temporary inflammatory response lasting 12 hours can be observed. This first phase corresponds to the release of histamine, serotonine and the accumulation of polynuclear neutrophiles. A second inflammatory phase commences on the third day following administration and continues for 5 days. During this inflammatory phase, vascular hyperpermeability […] endothelial cell membrane alteration produced by free radical oxidative damage. Steroidal and non-steroidal anti-inflammatory drugs are not effective during this second inflammatory phase.
Research into an anti-free radical activity in the rat by intra-peritoneal administration consists of measuring the reduction in edema produced by injection of adriamycin under the arch of the hind paw of the rat.
Male Wistar rats were used for these tests, after a quarantine period of 15 days.
(Edema was induced by subcutaneous injection of a 0.2 ml solution of adriamycin (2.5 mg/ml) in the arch of the right hind paw of the rat (Siegel's method modified by Jadot (1988)).
The compounds tested were administered 2 hours before the first measurements on the first day, and 1 hour before the measurements on the following days, until the 8th day.
The measurement of edema volume was determined by plethysmography and was performed immediately before injection of adriamycin on the first day (base measurement), and then every day at the same time.
The treatment was maintained for the entire duration of the study. The control group received the dosing vehicle only.
Following the establishment of groups of 10 animals, daily intra-peritoneal administration was carried out according to the following scheme:
Negative control: animals administered olive oil (1 ml/kg).
Positive control: animals administered 100 mg/kg de diosmine (1 ml/kg).
Example 4: animals administered example 4 (1 mil/kg)
Paw edema, expressed as a percentage, is calculated for each animal at each time point:
The percentage reduction in paw oedema at each time point and for each group of animals are calculated as follows: […]
Anti-free radical activity is shown by a significant reduction in paw volume in the treated group compared to the control group.

Series [2] is described as follows: activity of the sterol constituent (test not specified). To be noted: pure sterol in place of sitosterol.
The subject of series [3] is edema produced by injection of adriamycin under the arch of the hind paw of the rat. The note with it: cf JL Jadot; cited from earlier work.
For series [4] the following is noted: iv-injected, rat; cited from earlier work.

“And” between values parts separate entries of the source, which are not always exact repeats. Equal values may be shown once.

Turning to `COc1ccc(-c2cc(=O)c3c(O)cc(O[C@@H]4O[C@H](CO[C@@H]5O[C@@H](C)[C@H](O)[C@@H](O)[C@H]5O)[C@@H](O)[C@H](O)[C@H]4O)cc3o2)cc1O` [Diosmine], the “Paw volume, individual animals” value in series [1] (D1 (base), before adriamycin, 100 mg/kg) is 116 and 108 and 102 (2×) and 105 and 120 and 113 and 107 and 103 and 91; in series [1] (D2) it was 129 and 152 and 112 (2×) and 107 and 128 and 135 and 118 and 110 and 105; in series [1] (D3), 162 and 181 and 142 and 126 and 158 and 160 (2×) and 138 and 134 and 161; in series [1] (D4), 152 (2×) and 121 and 180 and 143 and 172 and 158 and 142 and 223 and 187; in series [1] (D5), 195 and 200 and 152 and 172 and 188 and 175 and 186 and 165 and 173 and 170; in series [1] (D6), 193 and 194 and 153 and 179 and 177 and 172 and 199 and 167 and 183 and 158. Moreover, the “Paw volume, individual animals” value is 195 and 176 and 148 and 174 and 164 (2×) and 166 and 172 and 173 and 150 in series [1] (D7); 180 and 173 and 145 and 156 and 165 and 164 (2×) and 175 and 159 and 154 in series [1] (D8). Also, the “Paw volume, group mean” value in series [1] (D1 (base), before adriamycin) is 106.70; in series [1] (D2) it was 120.80; in series [1] (D3), 152.20; in series [1] (D4), 163.00; in series [1] (D5), 177.6; in series [1] (D6), 177.50. The “Paw volume, group mean” value in series [1] (D7) is given as 168.20; in series [1] (D8) it was 163.50. For the same molecule, in series [1] (D2-D7, highest significance for Example 4 at D3 and D4 (p<0.001), disappears at D8), the “Paw volume in comparison to the negative control” value is “statistically significant difference”. Moreover, the “Percentage paw edema, individual animals” value in series [1] (D2) is 11.21% and 40.74% and 9.80% (2×) and 1.90% and 6.67% and 19.47% and 10.28% and 6.80% and 15.38%; in series [1] (D3) it was 39.66% and 67.59% and 39.22% and 20.00% and 31.67% and 41.59% and 49.53% and 35.29% and 30.10% and 76.92%; in series [1] (D4) it was 31.03% and 12.04% and 76.47% and 36.19% and 43.33% and 39.82% and 32.71% and 118.63% and 81.55% and 67.03%; in series [1] (D5) it was 68.10% and 85.19% and 49.02% and 63.81% and 56.67% and 54.87% and 73.83% and 61.76% and 67.96% and 86.81%; in series [1] (D6), 66.38% and 79.63% and 50.00% and 70.48% and 47.50% and 52.21% and 85.98% and 63.73% and 77.67% and 73.63%; in series [1] (D7), 68.10% and 62.96% and 45.10% and 65.71% and 36.67% and 46.90% and 60.75% and 60.78% and 67.96% and 64.84%. Also, in series [1] (D8), the “Percentage paw edema, individual animals” value was 55.17% and 60.19% and 42.16% and 48.57% and 37.50% and 45.13% and 63.55% and 60.78% and 54.37% and 69.23%. For the same molecule, the “Percentage paw edema, group mean” value in series [1] (D2) is reported as 13.21%; in series [1] (D3), 43.16%; in series [1] (D4), 53.88%; in series [1] (D5), 66.80%; in series [1] (D6), 66.72%; in series [1] (D7), 57.98%. Moreover, the “Percentage paw edema, group mean” value in series [1] (D8) was determined as 53.67%. Besides, the “Percentage of paw edema, change versus control” value in series [1] (D2 to D5, most significant at D3 for Example 4 (p<0.001)) was “significant decrease”. In addition, the “Percentage of edema inhibition (protection)” value in series [1] (D3) was found to be 44.15%; in series [1] (D4), 36.98%; in series [1] (D5) it was 21.77%; in series [1] (D6), 12.03%; in series [1] (D7) it was 14.05%; in series [1] (D8), 0%. In addition, the “Free radical protection activity (conclusion)” value in series [1] (edema progression compared to the control group) was “confirmed its activity”.
Regarding `CC[C@H](CC[C@@H](C)[C@H]1CC[C@H]2[C@@H]3CC[C@H]4C[C@@H](O)CC[C@]4(C)[C@H]3CC[C@]12C)C(C)C` [sitostanol], the “activity of pure sterol” value in series [2] was “no activity”.
On to `CC(C)[C@H](C)CC[C@@H](C)[C@H]1CC[C@H]2[C@@H]3CC=C4C[C@@H](O)CC[C@]4(C)[C@H]3CC[C@]12C` [campesterol], for which, in series [2], the “activity of pure sterol” value is “no activity”.
Turning to “bovine SOD: bovine superoxide dismutase enzyme”, the “Protection against edema from free radical damage” value in series [3] was “possesses the same characteristics as Diosmine”. Also, the circulation half life in series [4] was 7 min.
